Earlier results as cited in US9255091B2, “Benzothiazole-based pyridinium compounds” (The University of Montana, priority 2011, dated 2016).

Target: AChE P-site (Homo sapiens (Human), UniProt P22303)
Details: binds selectively to the AChE P-site; read-out: equilibrium dissociation constant

AChE P-site, sequence (P22303 32-614 limits assumed): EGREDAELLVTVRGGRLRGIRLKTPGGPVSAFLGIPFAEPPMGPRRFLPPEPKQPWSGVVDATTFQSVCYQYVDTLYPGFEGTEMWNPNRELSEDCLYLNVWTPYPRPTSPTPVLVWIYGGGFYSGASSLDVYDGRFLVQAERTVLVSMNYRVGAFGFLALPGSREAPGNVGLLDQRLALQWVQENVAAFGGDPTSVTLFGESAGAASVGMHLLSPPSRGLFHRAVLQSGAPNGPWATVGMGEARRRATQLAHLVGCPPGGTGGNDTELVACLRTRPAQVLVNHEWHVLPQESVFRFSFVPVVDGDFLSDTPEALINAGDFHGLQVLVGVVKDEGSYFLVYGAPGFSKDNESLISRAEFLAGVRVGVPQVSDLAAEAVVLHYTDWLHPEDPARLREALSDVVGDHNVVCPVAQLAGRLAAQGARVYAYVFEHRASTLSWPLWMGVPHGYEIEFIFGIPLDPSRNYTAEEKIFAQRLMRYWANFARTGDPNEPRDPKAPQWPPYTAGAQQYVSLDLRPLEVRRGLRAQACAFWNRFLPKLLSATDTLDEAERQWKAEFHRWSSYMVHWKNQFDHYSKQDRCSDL

Question: Which Kd does the source give for `Cc1ccc2c(c1)sc(-c1ccc(N(C)C)cc1)[n+]2C` [Thioflavin T] here?
Answer: The Kd was 1000 nM.
